Assays:
inner hair cell synapses [1] = assay: Mouse noise-induced cochlear synaptopathy, local GSI (synapse counts, ABR wave I); assay type: in vivo, CBA/J mice
Method: Two separate experiments were conducted using this protocol: in Experiment 1 (FIG. 7A) compound I treatment was compared to NT3, in Experiment 2 (FIG. 7B, 7C and FIG. 8) we evaluated two dose levels of compound I. For both experiments female CBA/J mice 6 weeks old (The Jackson Laboratory, Bar Harbor, Me.) were exposed, awake and unrestrained, to filtered octave band noise (8-16 kHz) for 2 hours at 98 dB SPL in a reverberant sound-exposure box. Mice were placed in a custom designed wire cage sitting atop high density 4-inch foam with the wire floor 1-inch above the foam. The noise waveform was generated and filtered with a TDT RZ6 pre-amplifier (Tucker Davis Technologies, Alachua, Fla.), amplified by a Crown XLS1000 power amplifier, and delivered by JBL 2426H Compression Driver coupled to a JBL 2730A horn. Sound levels were verified in the center of the cage using a ¼-inch condenser microphone (PCB Piezotronics, Depew, N.Y.) before each exposure. ABR was collected 1 and 14 days post-noise exposure to ensure a temporary threshold shift with no permanent threshold shift. Seventeen days after noise, mice were dosed bilaterally with crystalline Compound I, (2% in PF10*) or NT3 (2 μL of 150 ng/μL) (Experiment 1); crystalline Compound I (2% and 0.2% in PF10) (Experiment 2); and ABR was collected 14 days post-dose. Vehicle control animals received bilateral injections of PF10. Age matched naïve control animals were also used.
ABR Wave I analysis: The auditory brain-stem response (ABR) waveform comprises a set of waves (labeled I-V). Mice were anesthetized with ketamine and xylazine. ABR waveforms were collected using Tucker-Davis Technologies RZ6 Auditory Processor. The stimuli used were 5 ms tone (2 ms cos 2 rise-fall) at frequencies from 4, 8, 16, 24, and 32 kHz delivered in alternating polarity at 21/s. […] Wave I peak amplitudes were determined by extracting the raw waveform voltage averages and determining the window or latency at which the peak of wave I appears. […]

inner hair cell synapses [2] = assay: Guinea pig kanamycin-induced cochlear synaptopathy model; assay type: in vivo, Hartley guinea pigs; conditions: kanamycin 400 mg/kg i.p. 10 days; 30 μl of 2% in vehicle bilateral transtympanic on day 15; three months after
Method: Beginning on day 0, male Hartley guinea pigs (450-500 g) were deafened by intraperitoneal administration of kanamycin (400 mg/kg) dosed once daily for 10 consecutive days. […] A loss of synapse density in this model has not been described previously. On day 15, animals received bilateral transtympanic injections of vehicle (30 μl), crystalline Compound I (30 μl of 2% in vehicle), or crystalline Compound II (30 μl of 2% in vehicle). Three months after administration of test article, animals were euthanized and cochleae collected and stained with phalloidin and antibodies against CtBP2 and NF-200. The number of CtBP2+/NF-200+ synapses were quantified and normalized to the number of inner hair cells to obtain synapse density. Synapse density was decreased with kanamycin treatment at 14.7 and 17.3 mm from the apex of the cochlea, which in the guinea pig cochlea, tonally correlates with 16 and 32 kHz, respectively, according to the Greenwood frequency map.
Vehicle (PF10) and GSI in vehicle used in Examples 6 and 7 were prepared as follows: To 129 mL sterile water was added, 0.96 g sodium chloride, 0.59 g sodium phosphate dibasic, and 0.14 g sodium phosphate monobasic. The solution was stirred at ambient temperature and 25.6 g poloxamer 407 was added and stirred overnight to yield a clear solution. […]

[3] = both 0.2% and 2% dosages in PF10, bilateral, 17 days after noise, 14 days post-dose

Structure (SMILES): C[C@H](OC(=O)NCC(F)(F)C(F)(F)F)C(=O)N[C@@H]1C(=O)Nc2ccccc2-c2ccccc21 [Compound I, (2,2,3,3,3-pentafluoropropyl)-carbamic acid (S)-1-((S)-6-oxo-6,7-dihydro-5H-dibenzo[b,d]azepin-7-ylcarbamoyl) ethyl ester]
- synapse recovery in the mid 1 region (16-24 kHz) (inner hair cell synapses [1]; [3]): nearly complete synapse recovery
- synapse recovery in the mid 2 region (24-32 kHz) (inner hair cell synapses [1]; [3]): nearly complete synapse recovery
- ABR wave I amplitudes (inner hair cell synapses [1]; local administration following noise induced synaptopathy): improved wave I amplitudes
- synapse density (CtBP2+/NF-200+ synapses per inner hair cell) (inner hair cell synapses [2]): increased
